Data taken from patent publication US7977387B2, “Aminobenzophenone compounds” (Leo Pharma A/S, priority 2003, dated 2011).

Legend:
TNF-α = assay: Inhibition of TNF-α secretion in LPS stimulated peripheral blood mononuclear cells; assay type: cell-based; conditions: PBMC; LPS stimulated human peripheral blood mononuclear cells, 18 hours, ELISA; read-out: The median inhibition concentration (IC50, nM) of TNF-α
Method in brief: (§1)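 Human PBMCs (5×10^5 cells/ml, RPMI 1640 + 2% FCS) pre-treated with compound 30 min, then stimulated with LPS ([…]) for 18 h. Secreted IL-1β and TNF-α quantified by ELISA; IC50 values calculated.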

[1] = tested on: LPS induced TNF-α response; assay: In vivo screening model of LPS induced TNF-α response in mice; conditions: Mus musculus, mice (C3H/HeN), dosed 1 hour prior to LPS, plasma TNF-α 80-90 minutes after LPS, vs LPS treated control group, read-out: In vivo inhibition of LPS induced TNF-α production (in %)
Procedure: In Vivo Screening Model of LPS Induced TNF-α Response in Mice
To study the effect of compounds of the present invention in vivo, an in vivo screening model of LPS induced TNF-α response in mice was set up as follows: Groups of 6 mice (C3H/HeN, female, about 8 weeks (20 g), Bomholtgaard) were dosed with test compounds in suspension vehicle 1 hour prior to LPS administration (LPS from E. coli 055:B5, L-4005, Sigma). At time 0, the mice were dosed ip with 1.0 mg LPS/kg. After anesthetization with Hypnorm/Dormicum, the mice were bled from the periorbital venous plexus 80-90 minutes after LPS administration. The blood samples were sampled in EDTA stabilised tubes and centrifuged at 4000 rpm for 10 minutes at 4° C. The plasma level of TNF-α was analysed by ELISA. Compound 156 of WO 98/32730 was used as reference compound. The plasma level of TNF-α was determined using a sandwich ELISA. Microtiter plates were coated with a monoclonal antibody against mouse TNF-α, washed and blocked with a casein buffer. Samples of mouse TNF-α recombinant standards were added to the wells of the microtiter plates and incubated. All standards were tested in triplicate, all plasma samples in single. After sample and standard incubation, the plates were washed and incubated with biotinylated polyclonal secondary antibody against mouse TNF-α and washed. Enzyme conjugate was added to all wells and incubated. Substrate was added and the enzyme/substrate reaction stopped after 15 minutes at room temperature with 1M H2SO4. The colour development (OD) was measured at 450 nm on an ELISA reader and the background OD at 620 nm was subtracted. […] The results of the tested compounds are indicated as a percentage inhibition compared to an LPS treated control group. Compounds were tested at 10 mg/kg. The Mann-Whitney test was used to compare drug treated groups to the LPS treated control group (p<0.05).

IL-1β = assay: Inhibition of IL-1β secretion in LPS stimulated peripheral blood mononuclear cells; assay type: cell-based; conditions: PBMC; LPS stimulated human peripheral blood mononuclear cells, 18 hours, ELISA; read-out: The median inhibition concentration (IC50, nM) of IL-1β
Method in brief: as §1

Structure (SMILES) | IC50 (TNF-α) | inhibition at 10 mg/kg [1] | IC50 (IL-1β)
Cc1ccc(C(=O)NCCF)cc1C(=O)c1ccc(Nc2ccc(F)cc2F)cc1 [Compound 163, 3-[4-(2,4-Difluoro-phenylamino)-benzoyl]-N-(2-fluoro-ethyl)-4-methyl-benzamide] | 2.5 nM | 66% | 2.5 nM
C=CCOC(=O)Nc1ccc(C)c(C(=O)c2ccc(Nc3ccc(F)cc3F)cc2Cl)c1 [Compound 278, {3-[2-Chloro-4-(2,4-difluoro-phenylamino)-benzoyl]-4-methyl-phenyl}-carbamic acid allyl ester] | 0.6 nM | 65% | 1.3 nM
COc1ccc(C(=O)NCCCO)cc1C(=O)c1ccc(Nc2c(F)cccc2F)cc1Cl [Compound 176, 3-[2-Chloro-4-(2,6-difluoro-phenylamino)-benzoyl]-N-(3-hydroxy-propyl)-4-methoxy-benzamide] | 2 nM | 52% | 3.2 nM
COCCNC(=O)c1ccc(C)c(C(=O)c2ccc(Nc3ccccc3N)cc2Cl)c1 [Compound 116, 3-[4-(2-Aminophenylamino)-2-chlorobenzoyl]-N-(2-methoxyethyl)-4-methylbenzamide] | 1 nM | 95% | 1 nM
Cc1ccc(C(=O)NCC(C)C)cc1C(=O)c1ccc(Nc2ccc(Cl)cc2F)cc1Cl [Compound 129, 3-[2-Chloro-4-(4-chloro-2-fluoro-phenylamino)-benzoyl]-N-isobutyl-4-methyl-benzamide] | 1.3 nM | 73% | 2.5 nM
Cc1ccc(C(=O)NCC(F)F)cc1C(=O)c1ccc(Nc2ccc(F)cc2F)cc1Cl [Compound 166] | 0.4 nM | 83% | 0.5 nM
Cc1cc(F)ccc1Nc1ccc(C(=O)c2cc(C(=O)NCC3CCCO3)ccc2C)c(Cl)c1 (stereo not drawn) [Compound 104, 3-[2-Chloro-4-(4-fluoro-2-methylphenylamino)benzoyl]-4-methyl-N-(tetrahydrofuran-2-ylmethyl)benzamide] | 1.3 nM | 95% | 2 nM
COc1ccc(C(=O)NCC(F)F)cc1C(=O)c1ccc(Nc2ccc(F)cc2F)cc1Cl [Compound 141, 3-[2-Chloro-4-(2,4-difluoro-phenylamino)-benzoyl]-N-(2,2-difluoro-ethyl)-4-methoxy-benzamide] | 0.6 nM | 46% | 0.9 nM
Cc1ccc(C(=O)NCCO)cc1C(=O)c1ccc(Nc2ccc(Cl)cc2F)cc1Cl [Compound 120, 3-[2-Chloro-4-(4-chloro-2-fluoro-phenylamino)-benzoyl]-N-(2-hydroxy-ethyl)-4-methyl-benzamide] | 2 nM | 86% | 2.7 nM
Cc1ccc(C(=O)NC(C)(CO)CO)cc1C(=O)c1ccc(Nc2ccc(F)cc2F)cc1Cl [Compound 157, 3-[2-Chloro-4-(2,4-difluoro-phenylamino)-benzoyl]-N-(2-hydroxy-1-hydroxymethyl-1-methyl-ethyl)-4-methyl-benzamide] | 0.9 nM | 83% | 2.2 nM
COCCCNC(=O)c1ccc(C)c(C(=O)c2ccc(Nc3ccc(Cl)cc3F)cc2Cl)c1 [Compound 131, 3-[2-Chloro-4-(4-chloro-2-fluoro-phenylamino)-benzoyl]-N-(3-methoxy-propyl)-4-methyl-benzamide] | 1.3 nM | 70% | 3.2 nM
Cc1ccc(C(=O)NC(C)C)cc1C(=O)c1ccc(Nc2ccc(F)cc2F)cc1Cl [Compound 164, 3-[2-Chloro-4-(2,4-difluoro-phenylamino)-benzoyl]-N-isopropyl-4-methyl-benzamide] | 2 nM | 76% | 1.3 nM
COc1ccc(C(=O)NCC(O)CO)cc1C(=O)c1ccc(Nc2ccc(F)cc2)cc1Cl (stereo not drawn) [Compound 198, 3-[2-Chloro-4-(4-fluoro-phenylamino)-benzoyl]-N-(2,3-dihydroxy-propyl)-4-methoxy-benzamide] | 0.4 nM | 76% | 1.1 nM
